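Growth conditions: 96-well plates. Treatment: test compound, 48 hours, 5 concentrations. Analysis: linear interpolation between bracketing concentrations; unreached endpoints set to highest concentration. Abbreviation: GI50, concentration required for 50% inhibition of growth.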 Active and inactive are the calls of the source. Cut-off read from the data, not from the text of the source: active = GI50 up to about 1.1 µM and inactive = higher.
Columns and labels:
Assay in all cases: NCI anticancer screen, dose series, 48 h
SF-268 = tested on: SF-268
RXF 393 = tested on: RXF 393
UACC-62 = tested on: UACC-62
DU-145 = tested on: DU-145
MDA-N = tested on: MDA-N
SK-MEL-2 = tested on: SK-MEL-2
SN12C = tested on: SN12C
COLO 205 = tested on: COLO 205
NCI-H522 = tested on: NCI-H522
MDA-MB-231 = tested on: MDA-MB-231
HT-29 = tested on: HT-29
CAKI-1 = tested on: CAKI-1
MOLT-4 = tested on: MOLT-4
T47D = tested on: T47D
HCT-15 = tested on: HCT-15
A498 = tested on: A498
HL-60 = tested on: HL-60
M14 = tested on: M14
SK-MEL-5 = tested on: SK-MEL-5
U-251 = tested on: U-251

SMILES | GI50 (SF-268) | GI50 (RXF 393) | GI50 (UACC-62) | GI50 (DU-145) | GI50 (MDA-N) | GI50 (SK-MEL-2) | GI50 (SN12C) | GI50 (COLO 205) | GI50 (NCI-H522) | GI50 (MDA-MB-231) | GI50 (HT-29) | GI50 (CAKI-1) | GI50 (MOLT-4) | GI50 (T47D) | GI50 (HCT-15) | GI50 (A498) | GI50 (HL-60) | GI50 (M14) | GI50 (SK-MEL-5) | GI50 (U-251)
CN(CC(N)=O)C(=O)N(CCCl)N=O [SARCNU] | 27.2 µM (inactive) | > 100 µM (inactive) | > 56.4 µM (inactive) | > 100 µM (inactive) | > 100 µM (inactive) | > 100 µM (inactive) | > 100 µM (inactive) | > 100 µM (inactive) | > 100 µM (inactive) | > 100 µM (inactive) | > 100 µM (inactive) | > 100 µM (inactive) | > 100 µM (inactive) | > 100 µM (inactive) | > 100 µM | > 100 µM (inactive) | > 100 µM (inactive) | > 100 µM (inactive) | > 100 µM (inactive) | > 100 µM (inactive)
COc1cc2c(cc1OC)C/C(=N\O)c1cc(OC)c(OC)cc1/C=C\2 | 6.24 µM (inactive) | 5.25 µM (inactive) | 6.81 µM (inactive) | 4.49 µM (inactive) | 1.42 µM (inactive) | 3.44 µM (inactive) | 10.4 µM (inactive) | 4.91 µM (inactive) | 1.01 µM (active) | 5.87 µM (inactive) | 3.67 µM (inactive) | 3.61 µM (inactive) | 6.41 µM (inactive) | 10.6 µM (inactive) | 5.31 µM | 21.2 µM (inactive) | 3.03 µM (inactive) | 3.47 µM (inactive) | 1.95 µM (inactive) | 4.66 µM (inactive)
CC(C)OP(=O)(OC(C)C)C(C(C)C)N(C)/C(N)=N/C#N (stereo not given) | > 100 µM (inactive) | > 100 µM (inactive) | > 100 µM (inactive) | > 100 µM (inactive) | > 100 µM (inactive) | > 100 µM (inactive) | > 100 µM (inactive) | > 100 µM (inactive) | > 100 µM (inactive) | > 100 µM (inactive) | > 100 µM (inactive) | > 100 µM (inactive) | > 100 µM (inactive) | > 100 µM (inactive) | > 100 µM | > 100 µM (inactive) | > 100 µM (inactive) | > 100 µM (inactive) | > 100 µM (inactive) | > 100 µM (inactive)
COC(=O)C1=C(OC(=O)/C=C/c2ccc(Cl)cc2)C(C(=O)OC)[C@]2(O)[C@@H](C(=O)OC)[C@H]1C[C@@H](c1ccccc1)[C@@H]2C(=O)OC (stereo not given in full) | 4.66 µM (inactive) | 9.29 µM (inactive) | 7.45 µM (inactive) | 7.31 µM (inactive) | 3.58 µM (inactive) | 6.27 µM (inactive) | 7.36 µM (inactive) | 4.43 µM (inactive) | 2.34 µM (inactive) | 12.4 µM (inactive) | 7.74 µM (inactive) | 11.1 µM (inactive) | 3.76 µM (inactive) | 5.87 µM (inactive) | 3.66 µM | 6.04 µM (inactive) | 3.81 µM (inactive) | 6.1 µM (inactive) | 4.55 µM (inactive) | 4.74 µM (inactive)
